# Reference: patent US11058635B1, “Oral administration of 5-FU in a gelling nanosuspension for targeted delivery to treat colorectal cancers” (King Abdulaziz University, priority 2020, dated 2021)
# Experiment: In vitro drug release, pH-profile dialysis bag method
# Format: physicochemical
# Details: for overall pH-profile percentage release more than NAH-CRG-FU by: difference over 8 hrs
# Description: The ultimate goals were to develop a formula with in-soluble gel forming ability in the gastric media with good coherence, to form a sedimented gel with a density >1 in the stomach, to increase the gastric emptying rate and to avoid the gastric adverse effects and metabolism of FU by keeping a minimal gastric release or coating it. On other hand, the formula needed to dissolve and release the drug and gel in the simulated intestinal media, especially the colonic area. The main target was to design a system that was able to inhibit release of the drug in the stomach (i.e., release at a lower rate than the release rate in the intestinal-colonic area). Formulation was prepared according to Table 2 and the pattern of 5-FU release in the pH-profile differed from that of free 5-FU. After preparation of different formulations with manipulation of NA amounts (18, 36 and 72 mg/mL) and CRG types (CRGk and CRGL), the drug release optimization confirmed that the optimum formulation with respect to FU release curve and parameters was the NAH-CRG-FU shown in Table 2 and FIG. 6. […] The comparisons between the release patterns of the NAH-CRG-FU formulation and free drug were done using the simulated gastric release percentage (%)-first 2 hrs, simulated intestinal-colonic release percentage-subsequent 6 hrs (summation of the proximal, distal intestine and colon percentage simulated release patterns), mean dissolution time (MDT) of simulated pre-intestinal region (gastric) and simulated intestine-colonic area. Furthermore, mean dissolution times for 1st 2 hrs of pre-intestinal (Pre-intestinal MDT) and from the 2nd to 8th hr of the release profile (Intestinal-colonic MDT) were obtained by the following equation (Bani-Jaber and Abdullah 2020, Costa and Lobo 2001).
# [formula] wherein (i) expressed the release sample numbers, (n) referred to the number of release times, (t) was the mid-point time in the interval (ti-1-ti), (ΔM) was the released amount of drug in the interval (ti-1-ti). The MDT larger values could indicate a slower drug release rate. The predicted rate of release equates to the rate of dissolution, and this rate has a direct effect on the number of daily oral doses and any adverse effects associated therewith.
# 5-FU was prepared in a formulation of the NAH-CGR-FU gelling nanosuspension, as described in the previous Examples. Data from Table 2 was used to prepare a nanosuspension volume of 20 mL. The dose was loaded into a dialysis bag having a cut-off of 12000-14000 Dalton (Spectra/Por® 4-Dialysis membrane, USA). The dialysis bag was placed into a beaker containing 300 mL of release media. The bags were exposed to 0.1N HCl to simulate gastric media having a pH 1.2 for 2 hr, followed by simulated proximal intestine media, which was a phosphate buffer with pH 6.5 for 2 hr. This was followed by media simulating the media of the distal area of the small intestine, which was a phosphate buffer at a pH 6.8 for 2 hr. Finally, the dialysis bags were transferred to a phosphate buffer media having a pH 8 to simulate the media of a descending colon for 2 hrs. The sequential exposure in the different pH media was used to construct a pH dissolution profile. The temperature was constantly controlled at 37±0.5° C. in a water bath shaker of 75 rpm speed. To maintain sink conditions, the dissolution media underwent total replacement with a fresh medium every hour. After drug release optimization of the NA amount and CRG type was determined, the optimum formulation in-soluble gel that was formed in the acidic media was evaluated for the onset of formation and the extent of sedimentation.
compound,measurement,setting,value
"O=c1[nH]cc(F)c(=O)[nH]1 [Free 5-FU, 5-fluorouracil]",Gastric % Release,"0.1N HCl pH 1.2, first 2 hr, 37 C, 75 rpm",56.60 ± 0.0051%
same,higher gastric percentage release than NAH-CRG-FU by,"difference free 5-FU minus NAH-CRG-FU, first 2 hrs",31.55%
same,higher intestinal-colonic percentage release than NAH-CRG-FU by,"difference free 5-FU minus NAH-CRG-FU, subsequent 6 hrs",30.68%
same,overall pH-profile percentage release more than NAH-CRG-FU by,listed as 5-FU alone,62.23%
same,overall pH-profile percentage release more than NAH-CRG-FU by,listed as 5-FU free,62.2%
same,Pre-Intestinal MDT,"mean dissolution time, 1st 2 hrs, pH 1.2, n = 3 ± SD",0.23 ± 0.0011 h
same,Intestinal-Colonic MDT,"mean dissolution time, 2nd to 8th hr, pH 6.5, 6.8, 8, n = 3 ± SD",1.75 ± 0.0051 h
same,released after 8 hrs of the pH-profile study,"pH-profile 1.2-8, 8 hrs",95.97%
same,Proximal Intestine % Release,"phosphate buffer pH 6.5, 2 hr",23.04 ± 0.0022%
same,Distal Intestine % Release,"phosphate buffer pH 6.8, 2 hr",9.08 ± 0.0019%
same,Colon % Release,"phosphate buffer pH 8, 2 hr",7.26 ± 0.0014%
same,Intestinal-Colonic % Release,"subsequent 6 hrs, summation of proximal, distal intestine and colon",39.37 ± 0.0071%
